From paper PMC11500415, “Chemical inhibition of stomatal differentiation by perturbation of the master-regulatory bHLH heterodimer via an ACT-Like domain” (Nature Communications, 2024)
Several values for one entry are separate records, joined by “and”; a condition that tells them apart may be missing. Equal entries are not always repeated. Where two headings read alike, the source gives them in different places.

Target: T1, FAMA (Arabidopsis thaliana, UniProt Q56YJ8)
T1 construct: ΔNFAMA (190-414); made in house; host or cells: E. coli BL21
T1 sequence (Q56YJ8 190-414): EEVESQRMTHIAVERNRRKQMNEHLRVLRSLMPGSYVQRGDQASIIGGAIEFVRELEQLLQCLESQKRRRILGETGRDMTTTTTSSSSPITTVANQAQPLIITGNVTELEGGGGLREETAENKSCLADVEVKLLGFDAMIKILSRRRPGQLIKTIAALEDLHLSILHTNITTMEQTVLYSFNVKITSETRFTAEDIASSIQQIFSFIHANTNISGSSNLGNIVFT
Experiment: BLI direct binding
Set-up: species or system A. thaliana
Text: A. thaliana SCRM (1-494), ΔNSPCH (98-364), MUTE (1-202), ΔNFAMA (190-414), MUTEΔC (1-114), MUTER133A_R134A, MUTEE162A_E163A, MUTER133A_R134A_E162A_E163A, SCRM-ACTL (405-494), MUTE-ACTL (114-202), SPCH-ACTL (285-364), FAMA-ACTL (306-414), MUTE_ACTLR133A_R134A, MUTE_ACTLE162A_E163A, MUTE_ACTLR133A_R134A_E162A_E163A were cloned into pGEX-4T-1 vector with an N-terminal GST tag and a thrombin cleavage sequence. For protein expression, the constructs were transformed into E. coli strain BL21. For each transformant, a single colony was selected and incubated in 10 ml LB liquid media. The overnight-incubated E. coli suspensions were transferred to 1 L LB medium and incubated at 37 °C for around 2 h until the OD600 reached 0.4–0.6. The isopropyl β-D-1-thiogalactopyranoside ([…] of final concentration) was added to the cultures and the strains were incubated at 22 °C for a further 18 h. GST-fused proteins were purified using glutathione agarose resin. The soluble portion of the cell lysate was loaded onto a GST-Sepharose column. Nonspecifically bound proteins were removed by washing the column with 20 mM Tris pH 8.0, 200 mM NaCl. The bound GST-fused protein was eluted with 10 mm glutathione and 20 mM Tris pH 8.0, 200 mM NaCl. The GST-fused proteins were exchanged with phosphate-buffered saline buffer, and then the solution was treated with 50 μg of thrombin for 10–12 h at 16 ^οC. The GST portion of the protein was cleaved during thrombin digestion, and then the whole solution was reloaded onto the glutathione S-transferase column to obtain pure protein. The purified proteins were further purified by gel filtration on a Superdex-200 (GE) column using fast protein liquid chromatography and phosphate buffer (pH 7.2) as the eluent. The purity of the protein was checked by SDS-PAGE. For detailed lists of oligo DNA and plasmid information, see Supplementary Tables 5, 6, respectively.
The binding affinities of SCRM to MUTE / MUTER133A_R134A / MUTEE162A_E163A / MUTER133A_R134A_E162A_E163A in presence and absence of Stomidazolone (3) and its analogues (AYSJ1059 (5) and AYSJ1061 (6)), and Stomidazolone / AYSJ1059 / AYSJ1061 interactions with GST-tagged SCRM, MUTE, SPCH, FAMA, MUTE ΔACTL, MUTE_ACTL, SCRM_ACTL, SPCH_ACTL and FAMA_ACTL, MUTER133A_134A, MUTEE162A_E163A, MUTER133A_R134A_E162A_E163A were measured using the Octet Red96 system (ForteBio, Pall Life Sciences) following the manufacturer’s protocols. The optical probes coated with anti-GST were first loaded with 500 nM GST tagged proteins before kinetic binding analyses. The experiment was performed in 96-well plates maintained at 30 °C. Each well was loaded with 200 μL reaction volume for the experiment. The binding buffer used in these experiments contained 1× PBS supplemented with 2% DMSO, 0.02% Tween20. The concentrations of the Stomidazolone as the analyte in the binding buffer were 100, 50, 25, 12.5, 6.25, 3.12, and 1.56 μM. There was no binding of the analytes to the unloaded probes as shown by the control wells. Binding kinetics to all seven concentrations of the analytes were measured simultaneously using default parameters on the instrument. The data were analyzed using the Octet data analysis software. The association and dissociation curves were fit with the 1:1 homogeneous ligand model. The kobs (observed rate constant) values were used to calculate Kd, with steady-state analysis of the direct binding. See Supplementary Table 3 for details.

[1] = FAMA loaded on Anti-GST sensor, fit per sensor, Stomid Conc. (mM) 200-3.12, rep-1, rep-2
[2] = FAMA, Conc. (mM) 3.12, rep-1, rep-2
[3] = FAMA, Conc. (mM) 6.25, rep-1, rep-2
[4] = FAMA, Conc. (mM) 12.5, rep-1, rep-2
[5] = FAMA, Conc. (mM) 25, rep-1, rep-2
[6] = FAMA, Conc. (mM) 50, rep-1, rep-2
[7] = FAMA, Conc. (mM) 100, rep-1, rep-2
[8] = FAMA, Conc. (mM) 200, rep-1, rep-2

## O=C1C(c2ccccc2)=NC(NS(=O)(=O)c2ccccc2)(c2ccccc2)N1S(=O)(=O)c1ccccc1 (stereo not shown) [Stomidazolone]
BLI steady state, FAMA, read-out: KD (SS)
  Kd: 0.0782 ± 0.0065 mM
[1]
  kdis: 0.177 s⁻¹ and 0.176 s⁻¹ and 0.175 s⁻¹ and 0.178 s⁻¹ and 0.171 s⁻¹ and 0.18 s⁻¹
  kon: 2080 M⁻¹ s⁻¹
FAMA loaded on Anti-GST sensor, fit per sensor, Stomid Conc. (mM) 200-3.12, rep-1, rep-2, read-out: KD
  Kd: 0.0867 mM and 0.0859 mM and 0.0882 mM and 0.0891 mM and 0.0863 mM and 0.0866 mM and 0.0851 mM and 0.0817 mM and 0.0856 mM and 0.0903 mM and 0.0845 mM
[2]
  RMax: 0.095 and 0.0512
  Req/Rmax(%): 100%
  Response: 0.0912 and 0.0512
  kobs: 0.00577 s⁻¹ and 0.0035 s⁻¹
[3]
  RMax: 0.108 and 0.0812
  Req/Rmax(%): 97% and 100%
  Response: 0.1071 and 0.0812
[4]
  RMax: 0.124 and 0.1621
  Response: 0.1223 and 0.1621
[5]
  RMax: 0.165 and 0.1913
  Response: 0.1623 and 0.1913
[6]
  RMax: 0.251 and 0.2843
  Req/Rmax(%): 89%
  Response: 0.2461 and 0.2843
[7]
  RMax: 0.435 and 0.3712
  Response: 0.4312 and 0.3712
[8]
  RMax: 0.553 and 0.5072
  Req/Rmax(%): 98%
  Response: 0.5523 and 0.5072
read-out: kdis(1/s), FAMA loaded on Anti-GST sensor, fit per sensor, Stomid Conc. (mM) 200-3.12, rep-1, rep-2
  koff: 0.179 s⁻¹
read-out: kon(1/Ms), FAMA loaded on Anti-GST sensor, fit per sensor, Stomid Conc. (mM) 200-3.12, rep-1, rep-2
  kon: 2070 M⁻¹ s⁻¹
